Measured values as given in patent US20070009961A1, “Identification of targeting component of herbal medicines from simplified HPLC spectrum using after flowing through immobilized receptor (AFTIR) method” (Academia Sinica, priority 2005, published 2007).
Where two headings read alike, the source gives them in different places.

Experiments:
[1] = tested on: CD28 dependent IL-2 expression in Jurkat cells; assay: Jurkat T-cell IL-2 secretion (ELISA), CD28-dependent stimulation (anti-CD3 plus anti-CD28); format: cell-based, human
Protocol: Stimulation of T-cell. Jurkat leukemic T cells were maintained in a humidified atmosphere of 5% CO2/95% air at 37° C. in RPMI-1640 medium (HyClone, Utah, USA) including penicillin, streptomycin and 10% heat-inactivated FBS. Two modes of activations were used for the present experiments: anti-CD3 plus anti-CD28 (CD28-dependent stimulation) and PMA plus ionomycin (CD28-independent stimulation). For experiment of CD28-dependant stimulation, flat-bottom 96-well plates were coated with 10 μg/ml of anti-CD3 for 24 h at 4° C. Wells anti-CD3 were washed twice with PBS. After washing, the unbounded anti-CD3 was removed. Jurkat T-cells (200 μl 2×10^6 cells/ml) with soluble anti-CD28 (1 μg/ml) were then added into the wells. The cells were activated by anti-CD3 already existing in the wells. Upon the activation, the cell solution was stayed for 24 h. The supernatant (100 μl) of cell solution was then used for the measurement of IL-2 by enzyme-linked immuno-sorbent assay (ELISA). For experiment of CD28-indepentant stimulation, 200 μl Jurkat cell (5×10^5 cell/ml) were incubated with PMA (50 nM)/lonomycin (1 μg/ml) for 24 h. 100 μl supernatant was then used for IL-2 measurement by ELISA. […] The culture supernatants in both modes were harvested after 24h incubation and then used for the measurements of IL-2. IL-2 measurement was done using the commercial available ELISA kit (Biosource; California, US). The details how to measure the concentration of IL-2 after T-cell is activated is shown below. IL-2 ELISA assay. IL-2 concentration of T-cell was determined by following the instruction from manufacturer (Biosource; California, US). A 96-well flat-bottom plate was coated with anti-IL-2 mAb (100 μl at 4 μg/ml) in phosphate-buffered saline (PBS; pH 7.3) at room temperature overnight. The plate was then washed with PBS containing 0.05% Tween 20 (PBS-T) three times. Subsequently, the plate was incubated with a blocking solution containing 1% bovine serum albumin in PBS for more than 1 hr. After washing by PBS-T, 100 μl supernatant mixed with biotinylated anti-IL-2 detection antibodies (50 μl at 12.5 ng/ml) was added into each well and stay for 2 hr. After washing, 100 μl streptavidin horseradish peroxidase (1/2000 dilution of a 1.25 mg/ml solution) was added and the solution was incubated for 30 min at room temperature. After washing, 100 μl substrate solution containing 1/1 mixture of H2O2 and tetramethylbenzidine was added and the solution was incubated for 25min at room temperature. The solution reaction involving the stimulated sample was ceased by the addition of 100 μl stop solution (1M H2SO4). Concentration of IL-2 was then measured with microplate reader. The amount of IL-2 was indicated by the relative percentage ([…] of IL-2 is defined as 100%). […]

[2] = tested on: CD28-independent IL-2 response of Jurkat cells; assay: Jurkat T-cell IL-2 secretion (ELISA), CD28-independent stimulation (PMA plus ionomycin); format: cell-based, human
Protocol: Stimulation of T-cell. Jurkat leukemic T cells were maintained in a humidified atmosphere of 5% CO2/95% air at 37° C. in RPMI-1640 medium (HyClone, Utah, USA) including penicillin, streptomycin and 10% heat-inactivated FBS. Two modes of activations were used for the present experiments: anti-CD3 plus anti-CD28 (CD28-dependent stimulation) and PMA plus ionomycin (CD28-independent stimulation). For experiment of CD28-dependant stimulation, flat-bottom 96-well plates were coated with 10 μg/ml of anti-CD3 for 24 h at 4° C. Wells anti-CD3 were washed twice with PBS. After washing, the unbounded anti-CD3 was removed. Jurkat T-cells (200 μl 2×10^6 cells/ml) with soluble anti-CD28 (1 μg/ml) were then added into the wells. The cells were activated by anti-CD3 already existing in the wells. Upon the activation, the cell solution was stayed for 24 h. The supernatant (100 μl) of cell solution was then used for the measurement of IL-2 by enzyme-linked immuno-sorbent assay (ELISA). For experiment of CD28-indepentant stimulation, 200 μl Jurkat cell (5×10^5 cell/ml) were incubated with PMA (50 nM)/lonomycin (1 μg/ml) for 24 h. 100 μl supernatant was then used for IL-2 measurement by ELISA. […] IL-2 concentration of T-cell was determined by following the instruction from manufacturer (Biosource; California, US). […] Concentration of IL-2 was then measured with microplate reader. […]

[3] = biological target: T1, CD28-mulg (extracellular domain of human CD28 fused to murine IgG2a Fc), immobilized on CM5 chip (Homo sapiens, UniProt P10747); assay: Surface plasmon resonance (BIAcore) binding to chip immobilised CD28 / AFTIR
T1 construct: soluble fusion protein consisting of the extracellular (134 aa) domain of human CD28; purchased ID Labs Inc; host or cells: CHO transfectants
Excerpt: Receptors and proteins. Human CD28-mulg and CD80-mulg fusion proteins were purchased from ID Labs Inc. CD28-mulg is a soluble fusion protein consisting of the extracellular (134 aa) domain of human CD28 fused to murine IgG2a Fc (233 aa). CD80-mulg is a soluble fusion protein consisting of the extracellular (173 aa) domain of human CD80 fused to murine IgG2a Fc (232 aa). Both were purified from tissue culture supernatant of CHO transfectants by protein A and size exclusion chromatography. Anti-human CD28 antibody and anti-human CD3 antibody were purchased from BioLegend. In the experiments, the quantity of anti-CD28 and CD80 used is only around 2% the quantity of CD28 immobilized.
Surface plasmon resonance analysis. BIAcore 3000 (Biacore, Uppsala, Sweden) was employed for real-time biospecific interaction analysis. Binding analysis was performed at 25° C. with a flow rate of 10 μl/min. In general, proteins can be immobilized on the layer of carboxylated dextran in CM5 sensor chip (research grade; Biacore) by amine coupling. With each injection, samples were diluted in the running buffer HBS (10 mM HEPES, pH 7.4, 150 mM NaCl, 3.4 mM EDTA, 0.005% surfactant P20) to a final concentration of 15 to 30 μM. After each injection, flow-cell can be regenerated by flowing though the cell with the buffer containing 50 mM NaOH. Extracts were injected at different concentrations from 1.9 μM to 60 μM. The binding constant between immobilized receptor (imm-CD28) and ligand was determined using BIAevaluation 3.1 software (Biacore).
CD28-mulg, a soluble fusion protein consisting of the extracellular (134 aa) domain of human CD28 fused to murine IgG2a Fc (233 aa), was immobilized to dextran matrix on the sensor chip surface, via covalent coupling of primary amines (—NH2). In this report, the term CD28 will be used as shorthand for CD28-mulg. […]
The RU as shown in FIGS. 5b-5d is the actual RU subtracted by the “background RU”. […] Affinity binding constants (1/KD) can be obtained from KD, where KD is calculated from Scatchard plots. […]

[4] = biological target: T2, CD28-mulg, soluble fusion protein consisting of the extracellular (134 aa) domain of human CD28 fused to … (human; murine, UniProt P10747 19-152); assay: SPR, CD28-mulg on CM5 chip
T2 construct: extracellular domain; Bought from ID Labs Inc; purified from CHO transfectant supernatant; Coupled by primary amines to a CM5 sensor chip in all assays; also called imm-CD28; immobilized CD28; not shown: murine IgG2a Fc (233 aa)

## O=C(/C=C/c1ccc(O)c(O)c1)O[C@@H]1C[C@](O)(C(=O)O)C[C@@H](O)[C@H]1O [C1, chlorogenic acid (5-O-caffeoylquinic acid)]
[1]
  effect on IL-2 response (in words): linearly reduces IL-2 response
[1]; listed as Chlorogenic acid
  effect on IL-2 response (in words): downregulates CD28 dependent interleukin-2 (IL-2) expression
[1]; listed as chlorogenic acid
  effect on IL-2 response (in words): downregulating CD28 dependent IL-2 expression
[1]; normalized to 100%
  downregulation of IL-2 secretion response: −53%
[2]
  effect on IL-2 response (in words): unable to modulate
[3]; bound CEE washed off the chip and profiled with HPLC
  ability to bind CD28 (peak in HPLC profile after AFTIR): can bind CD28

## CD80: soluble fusion protein: extracellular (173 aa) domain of human CD80 fused to murine IgG2a Fc
[3]
  binding efficiency: > 90%
[3]; SPR, 10 μg/ml ligand
  binding capacity ΔR on immobilised CD28: ~120 RU

B1: CD80-mulg, soluble fusion protein consisting of the extracellular (173 aa) domain of human CD80 fused to murine IgG2a Fc (232 aa) (Fc fusion, UniProt P33681 35-242, looked up)
chain: VIHVTKEVKEVATLSCGHNVSVEELAQTRIYWQKEKKMVLTMMSGDMNIWPEYKNRTIFDITNNLSIVILALRPSDEGTYECVVLKYEKDAFKREHLAEVTLSVKADFPTPSISDFEIPTSNIRRIICSTSGGFPEPHLSWLENGEELNAINTTVSQDPETELYAVSSKLDFNMTTNHSFMCLIKYGHLRVNQTFNWNTTKQEHFPDN
notes: extracellular domain; Bought from ID Labs Inc; purified from CHO transfectant supernatant; Used as the soluble analyte in SPR; also called Human CD80-mulg; not shown: murine IgG2a Fc (232 aa)
[4]
  ratio of binding receptor:ligand (mole:mole): ~0.92 mole CD80 per mole imm-CD28
